This passage reports IC50 results from patent US20210032257A1, “(E)-1-(4-(DIMETHYLAMINO)BUT-2-ENOYL)PYRROLIDIN-3-YL 4-((3-ISOPROPYL-5-METHYLPYRAZOLO[1,5-A]PYRIMIDIN-7-YL)AMINO)PIPERIDINE-1-CARBOXYLATE FOR INHIBITING CDK7” (Eli Lilly and Company, priority 2017, published 2021).

SMILES strings stand for the structures.

The target in assay [1] is T1, CDK6/CycD1 (Homo sapiens, UniProt Q00534).
T1 construct: purchased ProQinase
In words: ProQinase WT Profiler radiometric protein kinase assay. The format is biochemical. The settings on record: non standard IC50 from 4 concentrations, kinase 3.2 nM, ATP 3 μM. The procedure: (§1) Kinase inhibition profile of compound is determined by measuring residual activity values at four concentrations in singlicate in 320 wild-type protein kinase assays. The compounds are tested at 20 μM, 2 μM, 0.2 μM and 0.02 μM in singlicate. The final DMSO concentration in all reaction cocktails (including high and low controls) is 1%.
(§2) A radiometric protein kinase assay (33PANQINASE® Activity Assay, ProQinase) is used for measuring the kinase activity of the 320 protein kinases. All kinase assays are performed in 96-well FLASHPLATES™ in a 50 μL reaction volume. The reaction cocktail is pipetted in 4 steps in the following order:
(§3) All PKC assays (except the PKC-mu and the PKC-nu assay) additionally contain 1 mM CaCl2). 4 mM EDTA, 5 μg/mL Phosphatidylserine and 1 μg/mL 1,2-Dioleyl-glycerol. The CAMK1D, CAMK2A, CAMK2B, CAMK2D, CAMK2G, CAMK4, CAMKK1, CAMKK2, DAPK2, EEF2K, MYLK, MYLK2 and MYLK3 assays additionally contain 1 μg/mL Calmodulin and 0.5 mM CaCl2). The PRKG1 and PRKG2 assays additionally contain 1 μM cGMP. The DNA-PK assay additionally contained 2.5 μg/mL DNA.
(§4) The protein kinase reaction cocktails are incubated at 30° C. for 60 minutes. The reaction is stopped with 50 μL of 2% (v/v) H3PO4, plates are aspirated and washed two times with 200 μL 0.9% (w/v) NaCl. […] All protein kinase assays are performed with a BeckmanCoulter BIOMEK® 2000/SL robotic system. All protein kinases provided by ProQinase are expressed in Sf9 insect cells or in E. coli as recombinant GST-fusion proteins or His-tagged proteins, either as full-length or enzymatically active fragments. All kinases are produced from human cDNAs and purified by either GSH-affinity chromatography or immobilized metal. Affinity tags are removed from a number of kinases during purification. The purity of the protein kinases is examined by SDS-PAGE/Coomassie staining, the identity is checked by mass spectroscopy. Kinases from external vendors (CAR=Carna Biosciences Inc.; INV=Life Technologies (Invitrogen Corporation™); MIL=Merck-Millipore (Millipore Corporation™), see Table 1) are expressed, purified and quality-controlled by virtue of the vendors readings.
(§5) For each kinase, the median value of the cpm of three wells is defined as “low control” (n=3). This value reflects unspecific binding of radioactivity to the plate in the absence of a protein kinase but in the presence of the substrate. […] The difference between high and low control of each enzyme is taken as 100% activity. As part of the data evaluation, the low control of each kinase is subtracted from the high control value as well as from their corresponding “compound values”. The residual activity (in %) for each compound well is calculated by using the following formula: Res. Activity (%)=100×[(signal of compound−low control)/(high control−low control)]. Non Standard IC50s are calculated using a customized excel spreadsheet in conjunction with XLFit Add-in. Due to the low number of data points, (4) XL-Fit calculates a non standard IC50 using a four parametric equation where three parameters are locked to fixed values.
(§6) A: Minimum value of activity, Also known as Bottom. Fixed to 0 B: Maximum value of activity, Also known as Top. Fixed to 100 C: Inflexion point of the curve D: Hill Slope. Fixed to 1 Y: The dependent variable (i.e. what you measure as the signal) X: The independent variable (i.e. what you control, such as, dose, concentration, etc.)
(§7) The way to calculate the Non Standard IC50 is to assign random values to C parameter and repeat it iteratively. The algorithm then measures the differences in the sum of the residuals squared and will look for successive consecutive iterations where the change in the residuals is converging.

For assay [2], the target named is T2, CDK7/CycH/MAT1 (Homo sapiens, UniProt P50613).
T2 construct: purchased ProQinase
The description is as above. The assay is classed as biochemical. The settings on record: non standard IC50 from 4 concentrations, kinase 3.3 nM, ATP 3 μM. The procedure: as §1, §2, §3, §4, §5, §6, §7

In assay [3] the test system is A2780. In words: Cell Proliferation Assay (CELL TITER GLO). The assay is classed as cell-based. As to conditions: Homo sapiens, 168 h; A2780, Ovarian Cancer, seven days. The protocol:
(§8) Cell lines are plated at the density 5000 cells per well in 100 μL per well growth medium into a white 96-well cell culture plate. See Table 2 for cell line and culture medium information. Plates are incubated at 37° C. and 5% CO2. The following day, a serial dilution of the test compound is prepared by diluting the compound 1:3 in DMSO for 10 points. The DMSO plate is 1000× the final concentration. In addition to the CDK7 inhibitor, a DMSO alone column is included as a maximum growth control and 10 μM staurosporine final column is included as a maximum growth inhibition control. A 10× dilution plate is then prepared by adding 2 μL per well from the 1000×DMSO plate to 198 μL per well of OMEM (Life Technologies, Carlsbad, Calif., cat #31985-070). Cells are treated with indicated compound by adding 11 μL per well from the 10×OMEM plate to the cell plate containing 100 μL per well growth medium for a 1× final concentration. Plates are placed back into the incubator at 37° C. and 5% CO2. Seven days after compound addition, plates are removed from the incubator and allowed to equilibrate to RT. CELL TITER GLO® reagent is thawed at room temperature and then prepare by mixing one vial of assay buffer with one vial of substrate and swirl gently to mix. CELL TITER GLO® reagent is then added to the cell plate, 100 μL per well, and place on a Titer Plate Shaker at speed setting 2 for 15 minutes at room temperature. After 15 minute incubation on shaker, luminescence is read, 1 second per well, using a Wallac VICTOR2™. Nonlinear regression and sigmoidal dose-response curves are used to calculate the half maximal inhibitory concentration (IC50) with Graphpad Prism 6 software.
Background: In ATP-based viability assays light output follows the ATP content of the culture.

Assay [4] has as its system HCC1806. Description: Cell Proliferation Assay (CELL TITER GLO). As to conditions: Homo sapiens, 168 h; HCC1806, Breast Cancer, seven days. The format is cell-based. The protocol: as §8
Assay [5] has as its system HCT116. Description: Cell Proliferation Assay (CELL TITER GLO). The format is cell-based. As to conditions: Homo sapiens, HCT-116, 168 h; HCT116, Colorectal Cancer, seven days. The protocol: as §8
For assay [6], the system named is MCF7. In words: Cell Proliferation Assay (CELL TITER GLO). The assay is classed as cell-based. The settings on record: Homo sapiens, 168 h; MCF7, Breast Cancer, seven days. The procedure: as §8
The subject of assay [7] is NCI-H446. In words: Cell Proliferation Assay (CELL TITER GLO). The format is cell-based. As to conditions: Homo sapiens, 168 h; NCI-H446, Lung Cancer, seven days. The procedure: as §8
The test system of assay [8] is NCI-H460. Description: Cell Proliferation Assay (CELL TITER GLO). The format is cell-based. The settings on record: Homo sapiens, 168 h; NCI-H460, Lung Cancer, seven days. The procedure: as §8
Assay [9] relates to SNU-16. In words: Cell Proliferation Assay (CELL TITER GLO). The assay is classed as cell-based. As to conditions: Homo sapiens, 168 h; SNU-16, Gastric Cancer, seven days. The protocol:
as §8

T2 sequence (P50613 whole entry): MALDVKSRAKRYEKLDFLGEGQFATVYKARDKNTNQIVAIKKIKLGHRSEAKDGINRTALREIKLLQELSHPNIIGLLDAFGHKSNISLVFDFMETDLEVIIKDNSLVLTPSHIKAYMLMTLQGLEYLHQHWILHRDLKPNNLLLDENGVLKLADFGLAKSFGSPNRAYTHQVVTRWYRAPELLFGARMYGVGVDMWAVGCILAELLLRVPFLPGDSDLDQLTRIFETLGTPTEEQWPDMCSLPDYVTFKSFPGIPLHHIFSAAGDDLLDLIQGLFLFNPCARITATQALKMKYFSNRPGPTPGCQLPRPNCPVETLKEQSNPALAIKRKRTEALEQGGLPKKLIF
T2 sequence (P51946 whole entry partner): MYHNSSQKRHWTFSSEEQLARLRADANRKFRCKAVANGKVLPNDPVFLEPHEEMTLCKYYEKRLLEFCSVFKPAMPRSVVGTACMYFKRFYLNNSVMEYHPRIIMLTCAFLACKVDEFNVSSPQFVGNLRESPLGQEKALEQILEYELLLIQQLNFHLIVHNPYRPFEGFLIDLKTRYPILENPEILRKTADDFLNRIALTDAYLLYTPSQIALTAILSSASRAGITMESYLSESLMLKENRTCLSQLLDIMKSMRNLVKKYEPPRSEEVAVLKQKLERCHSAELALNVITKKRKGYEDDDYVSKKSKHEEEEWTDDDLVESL
T2 sequence (P51948 whole entry partner): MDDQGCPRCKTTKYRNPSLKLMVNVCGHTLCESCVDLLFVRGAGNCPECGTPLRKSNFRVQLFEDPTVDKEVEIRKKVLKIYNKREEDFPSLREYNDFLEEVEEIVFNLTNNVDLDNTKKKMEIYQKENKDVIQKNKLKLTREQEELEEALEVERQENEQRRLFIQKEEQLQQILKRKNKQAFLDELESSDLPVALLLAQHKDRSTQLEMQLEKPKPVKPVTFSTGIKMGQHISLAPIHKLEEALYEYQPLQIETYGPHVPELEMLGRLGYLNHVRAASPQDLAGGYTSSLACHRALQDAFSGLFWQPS
T1 sequence (Q00534 whole entry): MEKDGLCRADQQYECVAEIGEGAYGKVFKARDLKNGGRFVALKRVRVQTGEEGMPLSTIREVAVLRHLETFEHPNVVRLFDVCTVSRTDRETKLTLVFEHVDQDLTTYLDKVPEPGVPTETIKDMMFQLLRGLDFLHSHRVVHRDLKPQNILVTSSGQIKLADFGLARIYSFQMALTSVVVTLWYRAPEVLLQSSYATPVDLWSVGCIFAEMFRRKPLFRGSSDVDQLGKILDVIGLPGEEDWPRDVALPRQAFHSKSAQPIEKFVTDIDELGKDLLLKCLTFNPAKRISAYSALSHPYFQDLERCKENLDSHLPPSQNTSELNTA
T1 sequence (P24385 whole entry partner): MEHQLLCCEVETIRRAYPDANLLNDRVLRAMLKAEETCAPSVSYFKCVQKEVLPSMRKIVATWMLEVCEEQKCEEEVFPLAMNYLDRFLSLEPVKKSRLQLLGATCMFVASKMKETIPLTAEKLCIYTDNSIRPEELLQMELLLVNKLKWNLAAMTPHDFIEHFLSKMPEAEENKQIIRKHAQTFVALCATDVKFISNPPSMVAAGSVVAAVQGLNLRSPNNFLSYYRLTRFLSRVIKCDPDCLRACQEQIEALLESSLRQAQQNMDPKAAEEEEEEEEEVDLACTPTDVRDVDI

One may read the IC50 as the midpoint of a concentration-inhibition curve. Higher therefore signals a need for much substance. As to `Cc1cc(NC2CCN(C(=O)O[C@H]3CCN(C(=O)/C=C/CN(C)C)C3)CC2)n2ncc(C(C)C)c2n1` [Example 1, [(3S)-1-[(E)-4-(dimethylamino)but-2-enoyl]pyrrolidin-3-yl] 4-[(3-isopropyl-5-methyl-pyrazolo[1,5-a]pyrimidin-7-yl)amino]piperidine-1-carboxylate], the IC50 was found to be 8080 nM in assay [1]; 92.8 nM in [2]; 26.5 nM in assay [3]; 25.5 nM in assay [4]; 46 nM in assay [5]; 32 nM in assay [6]. Moreover, the IC50 in [7] was determined as 14.2 nM; in assay [8], 47.9 nM; in [9], 23.1 nM.
